Results on three compounds are retold here after PMC8359193, “Summary of reference chemicals evaluated by the fish short‐term reproduction assay, OECD TG229, using Japanese Medaka, Oryzias latipes” (Journal of Applied Toxicology, 2021).

Entries after “also recorded” stand apart in the source; their conditions may differ. Like-named read-outs stand apart in the source and are kept apart here.

As usually defined, the IC50 is the concentration needed to halve the response being measured. One may read the EC50 as the concentration that produces a half-maximal response.

The target of one data set is T1, medaka Esr1 (mEsr1) (Oryzias latipes, UniProt P50241).
T1 construct: expressed in transfected cells; host or cells: HEK293 (human embryonic kidney cells), transient transfection with FuGENE HD
T1 sequence (P50241 1-620): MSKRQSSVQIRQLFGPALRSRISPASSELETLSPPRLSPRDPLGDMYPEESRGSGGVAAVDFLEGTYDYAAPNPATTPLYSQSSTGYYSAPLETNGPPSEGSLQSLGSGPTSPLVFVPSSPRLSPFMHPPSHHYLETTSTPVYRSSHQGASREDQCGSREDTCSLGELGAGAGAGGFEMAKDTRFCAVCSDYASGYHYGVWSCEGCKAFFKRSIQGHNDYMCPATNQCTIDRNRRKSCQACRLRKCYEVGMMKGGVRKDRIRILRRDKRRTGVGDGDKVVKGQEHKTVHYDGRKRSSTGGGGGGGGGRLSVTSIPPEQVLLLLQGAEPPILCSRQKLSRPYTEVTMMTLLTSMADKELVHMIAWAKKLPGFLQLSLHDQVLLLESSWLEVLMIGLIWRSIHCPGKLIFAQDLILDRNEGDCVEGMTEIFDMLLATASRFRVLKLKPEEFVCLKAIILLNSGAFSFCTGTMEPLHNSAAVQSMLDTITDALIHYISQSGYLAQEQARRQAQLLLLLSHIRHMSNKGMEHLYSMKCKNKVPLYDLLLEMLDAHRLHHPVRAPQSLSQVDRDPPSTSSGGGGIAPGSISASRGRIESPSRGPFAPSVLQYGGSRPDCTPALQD
Kind of data set: Medaka Esr1 reporter gene assay (RGA), antagonist assay with 1 nM E2, HEK293 cells. Type of data set: cell-based, Japanese medaka (Oryzias latipes). As to the method: To support interpretation of the biological effects observed in the FSTRA studies, in vitro RGAs using medaka Esr1 (mEsr1) and medaka ARβ (mARβ) were performed for the 16 test chemicals. In the present study, Esr1 and ARβ, which are ancestral subtypes among Esrs and ARs in Japanese medaka, were selected based on the phylogenetical analyses of Esr and AR with each receptor RGAs (Ogino et al., [2016], [2018]; Tohyama et al., [2015]).
The mEsr1 RGA consisting of agonist and antagonist assays were performed according to the methods previously reported (Katsu et al., [2010]; Lange et al., [2012]; Miyagawa et al., [2014]). Briefly, human embryonic kidney cells 293 (HEK293), precultured, were seeded in 96‐well plates at 15,000 cells/well with 200 μl of culture medium, phenol‐red‐free Dulbecco's Modified Eagle's medium (ThermoFisher Scientific K.K., Tokyo, Japan) supplemented with 2‐mM L‐glutamine and 10% charcoal/dextran‐treated fetal bovine serum (Hyclone, UT, USA), and then incubated for 24 h in 5% CO2 at 37°C. After the 24‐h incubation, 20 μl of test medium containing 40 ng of medaka Esr1/pcDNA3.1, 80 ng of ERE‐TK‐Luc, and 20 ng of pRL‐TK‐Rlu and 1.2 μL of transfection reagent FuGENE HD (Promega, WI, USA) were added into each well. The assay plates were incubated for another 4 h in order to transfect the three vectors into the HEK293 cells. After the vectors were successfully transfected, in agonist assay, 24 μl of concentrated test chemical solution was applied to the test medium in the plate wells. […] After chemical treatment for 40 h, luciferase activity of the cells was measured, and the promoter activity was calculated as firefly (Photinus pyralis)‐/sea pansy (Renilla reniformis)‐luciferase activity in each well. The luciferase activities were quantified by a chemiluminescence assay with Dual‐Luciferase Reporter Assay System (Promega) in accordance with the manufacturer's instructions, and luminescence intensity of firefly and sea pansy luciferin was measured using a luminometer, TriStar LB941 (Berthold Technology, Oak Ridge, TN, USA).
(§1) Effect concentrations, that is, EC50 (a half maximal effective concentration) in the agonist assay and IC50 (a half maximal inhibitory concentration) in the antagonist assay, were estimated by nonlinear curve fitting (e.g., three parameters logistic regression curve) using GraphPad Prism (GraphPad Software Inc., La Jolla, CA, USA).
(In a reporter assay the amount or activity of a reporter protein is the signal.)

Another data set concerns the target medaka ARβ (mARβ) (Oryzias latipes, UniProt D1MV73). Kind of data set: Medaka ARβ reporter gene assay (RGA), agonist assay, HepG2 cells. The following applies: mARβ RGA agonist assay; ND = no significant response even at the highest assay concentration (in parentheses). Type of data set: cell-based, Japanese medaka (Oryzias latipes). As to the method: To support interpretation of the biological effects observed in the FSTRA studies, in vitro RGAs using medaka Esr1 (mEsr1) and medaka ARβ (mARβ) were performed for the 16 test chemicals.
For the assays, human liver cancer cell line, HepG2, was used as the host cells, and mARβ/pcDNA3.1, MMTV‐Luc, and pRL‐TK‐Rlu were used as mARβ expression vector, reporter vector, and internal control vector, respectively.
as §1

Data set [1] has as its system Japanese medaka (Oryzias latipes). Kind of data set: Fish short-term reproduction assay (FSTRA, OECD TG229), 21-day flow-through exposure. The settings on record: for GSI Female / HSI Female / Length Female / Weight Female / GSI Male / HSI Male / Length Male / Weight Male: at completion of exposure; for Fertility rate (%) / Mortality (%) Female / Mortality (%) Male / Number of fertilized eggs / Number of total eggs / SSC Female / SSC Male / VTG (ng/mg of liver) Female / VTG (ng/mg of liver) Male: 21 days. As to the method: The experimental studies on the FSTRA for the 16 chemicals were conducted in two laboratories in Japan, the National Institute for Environmental Studies (NIES, Lab‐1) and the Institute of Environmental Ecology, IDEA Consultants Inc. (Lab‐2), in accordance with OECD TG229 (OECD, [2012a]) (Table 1).
The NIES‐R strain of Japanese medaka (O. latipes), one of the orange‐red varieties, was used in all the 16 chemical studies. For the studies, healthy and mature male and female medakas at 16 ± 2 weeks old were selected from a single‐stock population, which were bred within the test facilities. The test fish were maintained in conditions similar to the assay for at least 7 days, and spawning status was checked during the acclimation period. On the day the chemical exposure commenced, to ensure balanced distribution of test fish between the treatment groups for the reproductive status of the fish, the replicate vessels (fish tanks), with each containing three male and female medaka, were distributed to each treatment and control group, for example, by a randomized block design based on the number of fertilized eggs laid in the last 5–7 days during the acclimation, in each assay.
The water solubility of the test chemical was also taken into consideration when deciding the highest test concentration. To set the lower concentrations, a spacing factor ranging between two and five was used. All assays included a dilution water control (DWC).
Test solutions at the selected concentrations were prepared by diluting a stock solution, which was prepared by an adequate method depending on the physicochemical properties of the test chemicals, for example, by simply mixing the test chemical in dilution water by stirring and/or sonicating for an appropriate time or by using a solid–liquid saturator. In the two laboratories, flow‐through exposure systems, in which a series of test solutions at the target concentrations can be continuously prepared and delivered to test vessels at controlled flow rates (Haselman et al., [2016]; Watanabe et al., [2017]), were used for the exposure experiments.
In the FSTRA, three mature adult males and females in a test vessel were exposed together to the test chemicals in flow‐through condition for 3 weeks. In all the assays, each treatment group, including the DWC group, contained four replicate tanks. During the exposure period, the fish were fed a sufficient amount of live brine shrimp nauplii (newly hatched Artemia sp.) for daily spawning ad libitum. Fecal material in the tanks was appropriately removed by siphoning after feeding. Water temperature of test solutions was recorded for at least one vessel in each treatment and control group every day and for all vessels at least once a week. Furthermore, dissolved oxygen and pH of test solutions were measured for all test vessels at least once a week. Mortality and abnormal behavior and appearance in the fish exposed to test chemicals were daily observed, and any fish that died were removed from the tank as soon as possible. To assess the reproductive status, all eggs females spawned were collected every day. At the completion of the chemical exposure, surviving fish in each tank were sampled.
The eggs females released on the bottom of the tank were collected by siphoning, and the egg clutches still on female abdomen were carefully picked from the body of the females captured using a small net. All the eggs collected were microscopically observed and separately counted for fertilized and unfertilized.

Chain of medaka ARβ (mARβ) (D1MV73 entry or part of it): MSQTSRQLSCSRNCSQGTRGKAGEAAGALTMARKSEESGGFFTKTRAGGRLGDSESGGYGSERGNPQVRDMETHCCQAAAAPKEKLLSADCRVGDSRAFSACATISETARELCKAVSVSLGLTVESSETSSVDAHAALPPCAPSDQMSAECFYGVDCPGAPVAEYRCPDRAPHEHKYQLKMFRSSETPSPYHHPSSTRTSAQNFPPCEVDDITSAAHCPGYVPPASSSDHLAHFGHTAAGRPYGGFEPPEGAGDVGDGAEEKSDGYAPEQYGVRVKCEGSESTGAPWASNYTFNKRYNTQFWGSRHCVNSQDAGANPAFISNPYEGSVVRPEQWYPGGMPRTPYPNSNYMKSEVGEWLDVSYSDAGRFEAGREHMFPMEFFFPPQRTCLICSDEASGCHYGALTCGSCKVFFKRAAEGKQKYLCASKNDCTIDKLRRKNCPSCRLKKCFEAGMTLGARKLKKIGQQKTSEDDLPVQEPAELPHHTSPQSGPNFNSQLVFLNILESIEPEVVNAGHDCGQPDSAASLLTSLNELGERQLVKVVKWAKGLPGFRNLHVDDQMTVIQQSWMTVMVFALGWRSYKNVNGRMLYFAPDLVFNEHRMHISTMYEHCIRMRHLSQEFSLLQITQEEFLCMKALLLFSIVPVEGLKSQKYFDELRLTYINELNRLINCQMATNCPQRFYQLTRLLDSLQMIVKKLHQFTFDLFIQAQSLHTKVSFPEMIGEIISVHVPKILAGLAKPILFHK

Turning to `CC/C(=C(\c1ccc(O)cc1)c1ccc(OCCN(C)C)cc1)c1ccccc1` [4HTAM, 4‐hydroxytamoxifen], the IC50 against medaka Esr1 (mEsr1) came out at 0.52 nM.
Consider `C[C@]12CC(=O)[C@H]3[C@@H](CCC4=CC(=O)CC[C@@]43C)[C@@H]1CC[C@@H]2O` [11KT, 11‐ketotestosterone], for which the IC50 at medaka Esr1 (mEsr1) (mEsr1 RGA antagonist assay, 1 nM E2-mediated transactivation, ND = no significant response even at the highest assay concentration (in parentheses), read-out: Antagonist assay, IC50, Medaka Esr1) was above 100000 nM. In addition, at medaka ARβ (mARβ), the EC50 was found to be 2.7 nM.
Take `CCCN(CCOc1c(Cl)cc(Cl)cc1Cl)C(=O)n1ccnc1` [PCL, Prochloraz]: in data set [1] (21-day exposure), the “effect on fertility rate, in words” value is “significant decrease; also recorded: significant reduction”. Besides, in data set [1] (measured conc. 20.6 μg/L), the “GSI Female” value is recorded as 10.2%, the “HSI Female” value came out at 4.2%, the “Length Female” value stood at 35.0 mm and the “Weight Female” value was found to be 547 mg. In data set [1] (measured conc. 20.6 μg/L), the “GSI Male” value is listed as 1.26%, the “HSI Male” value was 1.7%, the “Length Male” value is on record as 34.4 mm and the “Weight Male” value came out at 408 mg. In data set [1] (measured conc. 20.6 μg/L), the “Fertility rate (%)” value is 94%, the “Mortality (%) Female” value is 0%, the “Mortality (%) Male” value came out at 0% and the “Number of fertilized eggs” value is on record as 37. Moreover, in data set [1] (measured conc. 20.6 μg/L), the “Number of total eggs” value is given as 39 ± 4.5 /female/day, the “SSC Female” value stood at 0 ± 0, the “SSC Male” value was determined as 103 ± 15 and the “VTG (ng/mg of liver) Female” value is recorded as 289 ± 57 ng/mg of liver. For the same compound, the “VTG (ng/mg of liver) Male” value in data set [1] (measured conc. 20.6 μg/L) is 2.6 ± 2.0 ng/mg of liver. In addition, in data set [1] (measured conc. 44.9 μg/L), the “GSI Female” value was found to be 11.1%, the “HSI Female” value is listed as 4.5%, the “Length Female” value turned out to be 36.5 mm and the “Weight Female” value stood at 591 mg. Also, in data set [1] (measured conc. 44.9 μg/L), the “GSI Male” value came to 1.16%, the “HSI Male” value is recorded as 1.7%, the “Length Male” value amounted to 34.3 mm and the “Weight Male” value is 415 mg. In data set [1] (measured conc. 44.9 μg/L), the “Fertility rate (%)” value came out at 84%, the “Mortality (%) Female” value worked out at 0%, the “Mortality (%) Male” value came out at 0% and the “Number of fertilized eggs” value amounted to 28. Further, in data set [1] (measured conc. 44.9 μg/L), the “Number of total eggs” value is 34 ± 5.5 /female/day, the “SSC Female” value is 0 ± 0, the “SSC Male” value came out at 93 ± 13 and the “VTG (ng/mg of liver) Female” value is 173 ± 53 ng/mg of liver. The “VTG (ng/mg of liver) Male” value in data set [1] (measured conc. 44.9 μg/L) is on record as 1.2 ± 1.2 ng/mg of liver. For the same compound, the “LOEC for decrease of VTG in females” value in data set [1] (hepatic VTG, 21-day exposure, measured conc.) came to 44.9 µg/L. Besides, the “effect on fecundity (number of total eggs), in words” value in data set [1] (within the test concentrations, 21-day exposure) was “No effect”. For the same compound, the IC50 against medaka Esr1 (mEsr1) was above 10000 nM.
